Patent publication US8188059B2, “Compounds and methods for modulating expression of GCGR” (Isis Pharmaceuticals, Inc., priority 2006, dated 2012)
Strand notation (5' to 3'): a small letter for the sugar, then the base; units joined by * are phosphorothioate-linked, units joined directly phosphodiester-linked; [ ] holds rarer units or linkages, { } end groups; capitals alone tell only the bases. e = 2'-O-(2-methoxyethyl) (MOE); [5mC] = 5-methylcytosine; d = 2'-deoxy (DNA)

Experiments:
[1] = test system: SGLT2 mRNA; test: SGLT2 mRNA levels in kidney of Balb/c mice, twenty 1-10-1 MOE gapmers at 350 nmol/kg, PPS 534 and PPS 553 (Example 18, Table 74); format: in vivo, mouse; settings: 350 nmol/kg i.p. twice per week for two weeks
Protocol: Twenty 1-10-1 MOE gapmers that are complementary to human/monkey/mouse/rat SGLT2 were designed, synthesized and tested in vivo for suppression of SGLT2 mRNA levels in kidney. Data are averages from two experiments in which male 6-week old Balb/c mice were administered intraperitoneal injections of 350 nmol/kg of oligonucleotide, twice per week, over a period of two weeks (a total of four injections). Mice were sacrificed 48 hours following the last administration and evaluated for SGLT2 mRNA levels in kidney. SGLT2 mRNA levels were determined by quantitative real-time PCR analysis according to standard procedures, using two different PCR primer probe sets, primer probe set (PPS) 534 and PPS 553. SGLT2 mRNA levels were normalized to cyclophilin mRNA levels, which were also measured by quantitative real-time PCR.

[2] = test system: GCGR mRNA; test: GCGR mRNA levels in liver of C57/BL6 mice, single i.p. dose (Example 4, Tables 35-41); format: in vivo, mouse; settings: liver, single i.p. dose, 48 hours
Protocol: (§1) Eight-week old male C57/BL6 mice (Jackson Laboratory, Bar Harbor, Me.) were administered a single dose of GCGR oligonucleotide by intraperitoneal injection at a concentration of […]. Each dose group consisted of four animals. Shown in Table 31 are the sequences, motifs and conjugates of the GCGR antisense compounds used in this study. Bolded residues indicate 2′-O-methoxyethyl (2′-MOE) moieties. All compounds comprise phosphorothioate internucleoside linkages throughout and each cytosine is replaced with 5-methylcytosine. ISIS 386626, ISIS 386627 and ISIS 386628 further comprise a C16 conjugate group attached to the 2′-O position of the sugar via a diamide linkage (2′-OCH2C(═O)N(H)(CH2)4N(H)C(═O)—(CH2)15CH3). GCGR antisense compounds target published GCGR sequences, including Genbank® Accession No. BC031885.1 (SEQ ID NO: 7).
(§2) Mice were sacrificed 48 hours following injection to determine serum transaminase levels (Table 32); liver, white adipose tissue (WAT), spleen and kidney weight (Table 33); cholesterol, triglyceride and glucose levels (Table 34); GCGR mRNA levels (Tables 35-41); and full-length and total oligonucleotide concentration in liver and kidney (Table 42). Endpoints were assessed using methods described herein and well known to those of ordinary skill in the art. Data is included from a pre-treatment bleed (Pre-Bleed) and post-treatment bleed (Post-Bleed).
To determine whether the phenotypic changes shown above correlated with a decrease in GCGR mRNA, treated animals were evaluated for levels of target mRNA in liver by real time PCR according to methods described herein. Tables 35 to 41 show results from direct comparisons of the antisense compounds targeting GCGR nucleic acid for their effect on target expression. Results are expressed as percent of saline control.

[3] = Triglyceride, cholesterol and glucose levels, pre-bleed and post-bleed (Example 4, Table 34); format: in vivo, mouse; settings: C57/BL6 mice, single i.p. dose, 48 hours
Protocol: as §1, §2

[4] = test system: mouse SGLT2 mRNA; test: Mouse SGLT2 mRNA levels in kidney, additional 1-10-1 and 2-8-2 MOE gapmers, Balb/c mice (Example 15, Table 68); format: in vivo
Protocol: 1-10-1 and 2-8-2 MOE gapmer short antisense compounds were designed to target different regions of the mouse SGLT2 RNA but have complementarity across species. […] All cytidine residues are 5-methylcytidines.
The short antisense compounds were analyzed for their effect on mouse SGLT2 mRNA levels in vivo. Data was taken from three experiments in which male 6-week old Balb/c mice were dosed twice per week for three weeks with 0.5, 0.1, or 0.02 umol/kg of either a 1-10-1 or 2-8-2 MOE gapmer given by intraperitoneal injection. Mice were sacrificed 48 hours following last administration and evaluated for SGLT2 levels in kidney. Target levels were determined by RT, real-time PCR as described by other examples herein. PCR results were normalized to an internal ISIS control.

379695 (antisense eG*dG*dA*d[5mC]*dA*d[5mC]*d[5mC]*dG*dT*d[5mC]*dA*eG) [compound 379695]
SGLT2 mRNA in kidney, % change relative to saline ([1]; primer probe set 534): −52.5% | SGLT2 mRNA in kidney, % change relative to saline ([1]; primer probe set 553): −64.1%

379696 (antisense e[5mC]*dA*dG*d[5mC]*dT*dT*d[5mC]*dA*dG*dG*dT*eA) [compound 379696]
SGLT2 mRNA in kidney, % change relative to saline ([1]; primer probe set 534): −24.6% | SGLT2 mRNA in kidney, % change relative to saline ([1]; primer probe set 553): −36.2%

379697 (antisense e[5mC]*dT*dG*dG*d[5mC]*dA*dT*dG*dA*d[5mC]*d[5mC]*eA) [compound 379697]
SGLT2 mRNA in kidney, % change relative to saline ([1]; primer probe set 534): −32.0% | SGLT2 mRNA in kidney, % change relative to saline ([1]; primer probe set 553): −46.3%

379698 (antisense eG*d[5mC]*dA*dG*d[5mC]*d[5mC]*d[5mC]*dA*d[5mC]*d[5mC]*dT*e[5mC]) [compound 379698]
SGLT2 mRNA in kidney, % change relative to saline ([1]; primer probe set 534): −11.8% | SGLT2 mRNA in kidney, % change relative to saline ([1]; primer probe set 553): −27.0%

379699 (antisense eG*dG*d[5mC]*dA*dT*dG*dA*dG*d[5mC]*dT*dT*e[5mC]) [compound 379699]
SGLT2 mRNA in kidney, % change relative to saline ([1]; primer probe set 534): −83.5% | SGLT2 mRNA in kidney, % change relative to saline ([1]; primer probe set 553): −85.8%

379700 (antisense e[5mC]*d[5mC]*dA*dG*d[5mC]*dA*dT*dG*dA*dG*dT*e[5mC]) [compound 379700]
SGLT2 mRNA in kidney, % change relative to saline ([1]; primer probe set 534): −2.8% | SGLT2 mRNA in kidney, % change relative to saline ([1]; primer probe set 553): −16.4%

379701 (antisense e[5mC]*d[5mC]*dA*dT*dG*dG*dT*dG*dA*dA*dG*eA) [compound 379701]
SGLT2 mRNA in kidney, % change relative to saline ([1]; primer probe set 534): −0.3% | SGLT2 mRNA in kidney, % change relative to saline ([1]; primer probe set 553): −11.9%

379702 (antisense eG*d[5mC]*dA*d[5mC]*dA*d[5mC]*dA*dG*d[5mC]*dT*dG*e[5mC]) [compound 379702]
SGLT2 mRNA in kidney, % change relative to saline ([1]; primer probe set 534): −87.8% | SGLT2 mRNA in kidney, % change relative to saline ([1]; primer probe set 553): −89.5%

379703 (antisense eG*d[5mC]*d[5mC]*dG*dG*dA*dG*dA*d[5mC]*dT*dG*eA) [compound 379703]
SGLT2 mRNA in kidney, % change relative to saline ([1]; primer probe set 534): −44.2% | SGLT2 mRNA in kidney, % change relative to saline ([1]; primer probe set 553): −45.9%

ISIS 386626: GCGR 2-10-2 MOE gapmer with C16 conjugate group at the 2′-O position via a diamide linkage (antisense GCTTCTCCATCATA; chemistry not fully specified)
GCGR mRNA expression [2]: greatest decrease | post-bleed glucose levels [3]: decreased in a dose-dependent manner

ISIS 388627 (antisense eG*e[5mC]*dA*d[5mC]*dA*d[5mC]*dA*dG*d[5mC]*dT*eG*e[5mC])
% change in SGLT2 expression relative to saline ([4]; 0.02 umol/kg i.p. twice per week for three weeks): −38% | % change in SGLT2 expression relative to saline ([4]; 0.1 umol/kg i.p. twice per week for three weeks): −50% | % change in SGLT2 expression relative to saline ([4]; 0.5 umol/kg i.p. twice per week for three weeks): −65%
